Assay results reported in paper PMC2191300 (The Journal of Experimental Medicine, 1993).

The substances below were run against I-Ak (Mus musculus, UniProt P01910+P06343) (assay: Percent of I-Ak occupied by each eluted self-peptide). Conditions: I-Ak from thymus (cortical plus medullary epithelium) of C3H/HeJ mice; Table 1.
Chain of I-Ak (P01910 whole entry, looked up): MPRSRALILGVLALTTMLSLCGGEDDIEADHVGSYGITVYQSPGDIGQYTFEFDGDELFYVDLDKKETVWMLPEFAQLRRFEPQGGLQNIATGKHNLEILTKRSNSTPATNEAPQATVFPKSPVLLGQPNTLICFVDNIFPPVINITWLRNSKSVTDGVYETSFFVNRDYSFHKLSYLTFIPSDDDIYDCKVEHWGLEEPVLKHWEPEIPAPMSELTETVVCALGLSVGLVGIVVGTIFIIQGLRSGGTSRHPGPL
Chain of I-Ak (P06343 whole entry, looked up): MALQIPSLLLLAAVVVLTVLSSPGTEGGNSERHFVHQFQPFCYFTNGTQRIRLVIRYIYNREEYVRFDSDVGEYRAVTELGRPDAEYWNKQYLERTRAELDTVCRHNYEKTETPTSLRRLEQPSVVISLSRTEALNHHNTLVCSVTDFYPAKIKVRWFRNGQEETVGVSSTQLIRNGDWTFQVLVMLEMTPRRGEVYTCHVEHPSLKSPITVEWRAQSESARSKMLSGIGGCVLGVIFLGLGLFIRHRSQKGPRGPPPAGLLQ

| Substance | Percent of MHC occupied in Thymus |
| --- | --- |
| a vvKKGTD_FQLNQLE [Transferrin 100-] | 0.3% |
| e yiLYNKGIMGEdSYPY [Cathepsin H 77-] | 0.2% |
| k kGTD_FQLNQLEGKKG [Transferrin 103-] | 0.2% |
| n serHFV_HQFQPFcyF [A~ 3-] | < 0.1% |
| r sYLD_AwVcEQLAT [Fce Receptor 11 298-] | < 0.1% |
| xPL_ALQFAELPVNKG | 0.2% |
| xP_IDDGGIEA | < 0.1% |
| xQLGA_QNEMLxPV | < 0.1% |
